Patent publication US20070009568A1, “METHODS FOR IMMOBILIZING MOLECULES ON SURFACES” (priority 2005, published 2007)
“Also recorded” adds a separate entry of the source.

Tested on: fibroblasts
Test: Fibroblast attachment to tresylated titanium wire grafted with P-15
Type: cell-based
Details: then P-15 1 mg/ml in 100 mM phosphate buffer pH 7.4 overnight, compared with control wire not exposed to P-15
Description: In this Example, titanium wire was treated with tresylation and attachment of P-15, followed by exposure to fibroblasts. The titanium wire was washed thoroughly in ethanol, then soaking in a 0.1 N NaOH solution for 15 minutes, followed by washing 10× with DI H2O. The surface was then rinsed in full strength H2O2, then soaked in 50% H2O2 overnight. The wire was then placed in a tresylation reaction mixture of trifluoroethanesulfonyl chloride (200 ul), pyridine (1.0 ml), and tetrahydrofuran (20 ml) overnight, followed by washing in DI H2O. The surface was then placed in a solution containing P-15 1 mg/ml in 100 mM phosphate buffer, pH 7.4, overnight. Following this treatment, the wire was again rinsed in DI H2O, then placed in a cell culture which contained fibroblasts that had been fluorescently labeled for 24 hours.
As a control, a second titanium wire was treated identically to the first wire, described above, except that it was not exposed to P-15 before being exposed to the fluorescently-labeled cells.

G-T-P-G-P-Q-G-I-A-G-Q-R-G-V-V (GTPGPQGIAGQRGVV) [P-15, collagen receptor agonist]
attachment of fluorescently labeled fibroblasts to the wire (photomicrographs, FIG. 1): increased fibroblast binding; also recorded: far more attached cells
